Results: patent publication US10894782B2, “Modulators of P97 AAA ATPase activity” (University of Pittsburgh—Of the Commonwealth System of …, priority 2016, dated 2021)

Molecular target: P97 (Homo sapiens (Human), UniProt P55072)
Assay: P97 Biomolgreen ATPase assay, 200 μM ATP
Format: biochemical
Details: not given

Sequence of P97 (P55072 whole entry): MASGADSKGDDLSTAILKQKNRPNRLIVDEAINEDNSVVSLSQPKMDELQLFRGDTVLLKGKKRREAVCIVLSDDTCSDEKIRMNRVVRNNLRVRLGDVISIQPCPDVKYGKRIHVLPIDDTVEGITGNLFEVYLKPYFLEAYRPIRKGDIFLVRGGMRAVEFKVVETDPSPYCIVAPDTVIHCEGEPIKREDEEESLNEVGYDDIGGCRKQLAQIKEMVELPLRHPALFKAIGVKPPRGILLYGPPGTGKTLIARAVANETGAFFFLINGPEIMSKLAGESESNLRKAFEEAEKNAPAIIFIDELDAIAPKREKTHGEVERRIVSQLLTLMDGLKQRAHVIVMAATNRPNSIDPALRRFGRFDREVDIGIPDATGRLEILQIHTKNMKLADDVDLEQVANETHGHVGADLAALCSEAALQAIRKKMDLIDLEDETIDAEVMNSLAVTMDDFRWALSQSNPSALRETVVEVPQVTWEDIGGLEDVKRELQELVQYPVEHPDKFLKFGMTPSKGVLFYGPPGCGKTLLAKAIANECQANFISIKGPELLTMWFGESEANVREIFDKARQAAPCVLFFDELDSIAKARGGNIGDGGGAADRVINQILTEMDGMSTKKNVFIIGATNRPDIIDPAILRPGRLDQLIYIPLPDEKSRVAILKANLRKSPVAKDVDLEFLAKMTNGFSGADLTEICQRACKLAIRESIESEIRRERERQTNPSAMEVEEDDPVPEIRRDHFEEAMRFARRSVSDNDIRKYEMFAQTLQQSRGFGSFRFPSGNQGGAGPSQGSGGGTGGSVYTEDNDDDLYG

Row | Compound | P97 Biomolgreen; 200 μM ATP; IC50 (μM)
1 | CCC(=O)NCC#Cc1ccc(OCc2nnc(SC[C@@]3(C)CO3)n2-c2cccnc2)cc1C [Compound 130] | not active

Same assay, conditions: P97 Biomolgreen, IC50 (μM)

Row | Compound | IC50 [µM]
2 | [2H]C1([2H])C([2H])([2H])C([2H])([2H])C([2H])(Sc2nnc(COc3ccc(C#CC(O)c4ccccc4)c(C)c3)n2-c2cccnc2)C1([2H])[2H] (stereo not shown) [Compound 52] | 0.55
3 | [2H]C1([2H])C([2H])([2H])C([2H])([2H])C([2H])(Sc2nnc(COc3ccc(C#CCOC(=O)NC(C)C)c(C)c3)n2-c2cccnc2)C1([2H])[2H] [Compound 23] | 0.032
4 | [2H]C1([2H])C([2H])([2H])C([2H])([2H])C([2H])(Sc2nnc(COc3ccc(C#CCOC(=O)NCC(F)(F)F)c(C)c3)n2-c2cccnc2)C1([2H])[2H] [Compound 20] | 0.034
5 | [2H]C1([2H])C([2H])([2H])C([2H])([2H])C([2H])(Sc2nnc(COc3ccc(C#CCOC(=O)NCCN4CCCN(C(C)C)CC4)c(C)c3)n2-c2cccnc2)C1([2H])[2H] [Compound 32] | 0.023
6 | [2H]C1([2H])C([2H])([2H])C([2H])([2H])C([2H])(Sc2nnc(COc3ccc(C#CCOC(=O)NCCN4CCN(C(C)C)CC4)c(C)c3)n2-c2cccnc2)C1([2H])[2H] [Compound 100] | 0.025
7 | [2H]C1([2H])C([2H])([2H])C([2H])([2H])C([2H])(Sc2nnc(COc3ccc(C#CCN4CCS(=O)(=O)CC4)c(C)c3)n2-c2cccnc2)C1([2H])[2H] [Compound 41] | 0.16
8 | [2H]C1([2H])C([2H])([2H])C([2H])([2H])C([2H])(Sc2nnc(COc3ccc(C#CCOC(=O)NC)c(C)c3)n2-c2cccnc2)C1([2H])[2H] [Compound 24] | 0.026
9 | [2H]C1([2H])C([2H])([2H])C([2H])([2H])C([2H])(Sc2nnc(COc3cc(F)c(C#CCO)cc3F)n2-c2cccnc2)C1([2H])[2H] [Compound 123] | 0.021
10 | [2H]C1([2H])C([2H])([2H])C([2H])([2H])C([2H])(Sc2nnc(COc3ccc(C#CCOC(=O)N4CCOCC4)c(C)c3)n2-c2cccnc2)C1([2H])[2H] [Compound 6] | 0.044
11 | [2H]C1([2H])C([2H])([2H])C([2H])([2H])C([2H])(Sc2nnc(CNc3ccc(C#CCO)c(C)c3)n2-c2cccnc2)C1([2H])[2H] [Compound 117] | 0.99
12 | [2H]C([2H])(O)C#Cc1ccc(OCc2nnc(SC3([2H])C([2H])([2H])C([2H])([2H])C([2H])([2H])C3([2H])[2H])n2-c2cccnc2)cc1F [Compound 109] | 0.03
13 | [2H]C1([2H])C([2H])([2H])C([2H])([2H])C([2H])(Sc2nnc(COc3ccc(C#CCOC(=O)NC4CCN(C)CC4)c(F)c3)n2-c2cccnc2)C1([2H])[2H] [Compound 126] | 0.016
14 | [2H]C1([2H])C([2H])([2H])C([2H])([2H])C([2H])(Sc2nnc(COc3ccc(C#CC(C)OC(=O)NC(C)C)c(C)c3)n2-c2cccnc2)C1([2H])[2H] (stereo not shown) [Compound 1] | 0.16

Same assay, conditions: read-out: P97 Biomolgreen, IC50

Row | IC50 [µM] | Compound
15 | 0.035 | Cc1cc(OCc2nnc(SC3C=CCCC3)n2-c2cccnc2)ccc1C#CCNS(=O)(=O)C1CC1 (stereo not shown) [Compound 18]
16 | 0.019 | Cc1cc(OCc2nnc(SC3C=CCCC3)n2-c2cccnc2)ccc1C#CCOC(=O)NCCN1CCN(C(C)C)CC1 (stereo not shown) [Compound 60]
17 | 0.055 | Cc1cc(OCc2nnc(SC3C=CCCC3)n2-c2cccnc2)ccc1C#CCNC(C)C (stereo not shown) [Compound 16]
18 | 0.04 | OCC#Cc1ccc(OCc2nnc(SC3C=CCCC3)n2-c2cccnc2)c(F)c1F (stereo not shown) [Compound 113]
19 | 0.06 | C=C(C)C(=O)NCC#Cc1ccc(OCc2nnc(SC3C=CCCC3)n2-c2cccnc2)cc1C (stereo not shown) [Compound 86]
20 | 0.048 | Cc1cc(OCc2nnc(SC3C=CCCC3)n2-c2cccnc2)ccc1C#CCNS(=O)(=O)N1CCOCC1 (stereo not shown) [Compound 63]
21 | 0.02 | OCC#Cc1cc(F)c(OCc2nnc(SC3C=CCCC3)n2-c2cccnc2)cc1F (stereo not shown) [Compound 114]
22 | 0.05 | Cc1cc(C(=O)NCC#Cc2ccc(OCc3nnc(SC4C=CCCC4)n3-c3cccnc3)cc2C)no1 (stereo not shown) [Compound 104]
23 | 0.02 | CN1CCN(CCNC(=O)OCC#Cc2ccc(OCc3nnc(SC4C=CCCC4)n3-c3cccnc3)cc2F)CC1 (stereo not shown) [Compound 77]
24 | 0.64 | Cc1cc(OCc2nnc(SC3C=CCCC3)n2-c2cccnc2)ccc1C#CC(C)(C)NC(=O)OC(C)(C)C (stereo not shown) [Compound 45]
25 | 0.03 | CC(=O)N1CCN(C(=O)OCC#Cc2ccc(OCc3nnc(SC4C=CCCC4)n3-c3cccnc3)cc2C)CC1 (stereo not shown) [Compound 102]
26 | 0.934 | Cc1cc(OCc2nnc(SC3C=CCCC3)n2-c2cncc(Cl)c2)ccc1C#CCOC(=O)NCCN1CCN(C)CC1 (stereo not shown) [Compound 85]
27 | 0.14 | Cc1cc(OCc2nnc(SC3C=CCCC3)n2-c2cccnc2)ccc1C#CCNC(=O)OC(C)(C)C (stereo not shown) [Compound 40]
28 | 0.03 | Cc1cc(OCc2nnc(SC3C=CCCC3)n2-c2cccnc2)ccc1C#CCNC(=O)CCl (stereo not shown) [Compound 95]
29 | 0.16 | Cc1cc(OCc2nnc(SC3CCCC=C3F)n2-c2cccnc2)ccc1C#CCOC(=O)NCCN1CCN(C(C)C)CC1 (stereo not shown) [Compound 81]
30 | 0.03 | CCC(=O)NCC#Cc1ccc(OCc2nnc(SC3C=CCCC3)n2-c2cccnc2)cc1C (stereo not shown) [Compound 94]
31 | 0.012 | CN1CCC(NC(=O)OCC#Cc2c(F)cc(OCc3nnc(SC4C=CCCC4)n3-c3cccnc3)cc2F)CC1 (stereo not shown) [Compound 120]
32 | 0.084 | Cc1cc(OCc2nnc(SC3C=CCCC3)n2-c2cccnc2)ccc1C#CCOC(=O)NCCN1CCN(C(C)C)CC1 (stereo not shown) [Compound 90]
33 | 0.058 | C/C=C/C(=O)NCC#Cc1ccc(OCc2nnc(SC3C=CCCC3)n2-c2cccnc2)cc1C (stereo not shown) [Compound 87]
34 | 0.04 | COc1cc(C#CCO)c(F)cc1OCc1nnc(SC2C=CCCC2)n1-c1cccnc1 (stereo not shown) [Compound 116]
35 | 0.019 | COc1cc(C#CCOC(=O)NC2CCN(C)CC2)c(F)cc1OCc1nnc(SC2C=CCCC2)n1-c1cccnc1 (stereo not shown) [Compound 122]
36 | 0.036 | Cc1cc(OCc2nnc(SC3C=CCCC3)n2-c2cccnc2)ccc1C#CCNC1CCN(C)CC1 (stereo not shown) [Compound 19]
37 | 0.09 | Cc1cc(OCc2nnc(SC3C=CCCC3)n2-c2cccnc2)ccc1C#CCNS(=O)(=O)C1CCN(C(=O)OC(C)(C)C)CC1 (stereo not shown) [Compound 78]
38 | 0.06 | Cc1cc(OCc2nnc(SC3C=CCCC3)n2-c2cccnc2)ccc1C#CCNS(=O)(=O)N1CCCC1 (stereo not shown) [Compound 64]
39 | 0.017 | CN1CCC(NC(=O)OCC#Cc2ccc(OCc3nnc(SC4C=CCCC4)n3-c3cccnc3)c(F)c2F)CC1 (stereo not shown) [Compound 118]
40 | 0.025 | CCC(=O)NCC#Cc1ccc(OCc2nnc(SC3C=CCCC3)n2-c2cccnc2)cc1C (stereo not shown) [Compound 112]
41 | 0.043 | Cc1cc(OCc2nnc(SC3C=CCCC3)n2-c2cccnc2)ccc1C#CCNS(=O)(=O)N(C)C (stereo not shown) [Compound 33]
42 | 0.03 | Cc1cc(OCc2nnc(SC3C=CCCC3)n2-c2cccnc2)ccc1C#CCOC(=O)N1CCN(C(C)C)CC1 (stereo not shown) [Compound 101]

More lines, now with the values behind:

Row | Compound | IC50 [µM]
43 | Cc1cc(OCc2nnc(SC3CCCC3)n2-c2cccnc2)ccc1C#CCOC(=O)NCCOCCNC(=O)CC1[C@H]2C[C@@H]3C[C@@H](C[C@H]1C3)C2 (stereo partly shown) [Compound 111] | 0.03
44 | Cc1cc(OCc2nnc(SC3CCCC3)n2-c2cccnc2)ccc1C#CCOC(=O)NC(C)C [Compound 22] | 0.027
45 | N#Cc1ccc(C#CCOCc2nnc(SC3CCCC3)n2-c2cccnc2)cc1 [Compound 56] | > 6.7
46 | C#Cc1ccc(OCc2nnc(CC3CCCC3)n2-c2cccnc2)cc1C [Compound 51] | 0.44
47 | Cc1cc(OCc2nnc(SC3C=CCCC3)n2-c2cccnc2)ccc1C#CCNCc1ccc(F)cc1 (stereo not shown) [Compound 39] | 0.11
48 | Cc1cc(OCc2nnc(SC3CCCC3)n2-c2cccnc2)ccc1C#CCNC(=O)C(C)(C)C [Compound 10] | 0.092
49 | Cc1cc(OCc2nnc(SC3C=CCCC3)n2-c2cncc(Cl)c2)ccc1C#CCO (stereo not shown) [Compound 84] | 2.11
50 | Cc1cc(OCc2nnc(CC3CCCC3)n2-c2cccnc2)ccc1C#CCOC(=O)NCCC(=O)N1CCN(C)CC1 [Compound 70] | 0.098
51 | Cc1cc(OCc2nnc(SC3CCCC3)n2-c2cccnc2)ccc1C#CCN1CCOCC1 [Compound 8] | 0.039
52 | Cc1cc(OCc2nnc(CC3CCCC3)n2-c2cccnc2)ccc1C#CCOC(=O)NCCN1CCN(C(C)C)CC1 [Compound 66] | 0.12
53 | Cc1cc(OCc2nnc(SC3CCCC3)n2-c2cccnc2)ccc1C#CCO [Compound 58] | 0.093
54 | Cc1cc(OCc2nnc(SC3C=CCCC3)n2-c2cccnc2)ccc1C#CCNS(=O)(=O)c1ccc(F)cc1 (stereo not shown) [Compound 15] | 0.074
55 | C#Cc1ccc(OCc2nnc(SC3CCCC3)n2-c2cccnc2)cc1C [Compound 2] | 0.049
56 | Cc1cc(OCc2nnc(S(=O)(=O)C3C=CCCC3)n2-c2cccnc2)ccc1C#CCO (stereo not shown) [Compound 98] | 4.82
57 | Cc1cc(OCc2nnc(SC3C=CCCC3)n2-c2cccnc2)ccc1C#CCNCCN(C)C (stereo not shown) [Compound 88] | 0.06
58 | Cc1cc(OCc2nnc(SC3CCCC3)n2-c2cccnc2)ccc1C#CCN1C(=O)c2ccccc2C1=O [Compound 50] | 0.28
59 | CCC(=O)NCC#Cc1ccc(OCc2nnc(SCC(=O)CCl)n2-c2cccnc2)cc1C [Compound 132] | 2.77
60 | Cc1cc(OCc2nnc(SC3C=CCCC3)n2-c2cccnc2)ccc1C#CCNC(=O)NCC#Cc1ccc(OCc2nnc(SC3C=CCCC3)n2-c2cccnc2)cc1C (stereo not shown) [Compound 134] | 0.25
61 | Cc1cc(OCc2nnc(SC3CC3)n2-c2cccnc2)ccc1C#CCNC(=O)OC(C)(C)C [Compound 54] | 2
62 | Cc1cc(OCc2nnc(SC3CCCC=C3F)n2-c2cccnc2)ccc1C#CCO (stereo not shown) [Compound 74] | 0.51
63 | Cc1cc(OCc2nnc(CC3CCCC3)n2-c2cccnc2)ccc1C#CCOC(=O)NCCN1CCN(C)CC1 [Compound 69] | 0.066
64 | Cc1cc(OCc2nnc(OC3CCCC3)n2-c2cccnc2)ccc1C#CCO [Compound 99] | 0.183
65 | Cc1cc(OCc2nnc(SC3CCCC3)n2-c2cccnc2)ccc1C#CCOC(=O)NCCNC(=O)CC1[C@H]2CC3C[C@H](C2)C[C@H]1C3 (stereo partly shown) [Compound 110] | 0.06
66 | Cc1cc(OCc2nnc(SC3CCCC3)n2-c2cccnc2)ccc1C#CCO [Compound 89] | 0.028
67 | Cc1ccc(S(=O)(=O)NCC#Cc2ccc(OCc3nnc(SC4C=CCCC4)n3-c3cccnc3)cc2C)cc1 (stereo not shown) [Compound 7] | 0.13
